≈ marks a conversion by molar mass, not a printed value. Like-named read-outs stand apart in the source and are kept apart here.
How the values were obtained:
Mtb [1] = assay: microbe, parasite or virus in culture; format: cell-based, Mycobacterium tuberculosis; details: Mycobacterium tuberculosis
in vitro = details: African green monkey
Mtb [2] = assay: microbe, parasite or virus in culture; format: cell-based, Mycobacterium tuberculosis; details: Mycobacterium tuberculosis, read-out: MIC (III)
[3] = read-out: MIC, microplate alamar blue assay (MABA; I)

| Compound | MIC (Mtb [1]; read-out: MIC (I)) [µg/mL] | CC50 (in vitro) [µg/mL] | MIC (Mtb [2]) [µg/mL] | MIC (Mtb [1]; [3]) [µg/mL] |
| --- | --- | --- | --- | --- |
| CCOC(=O)NC(=O)c1ccsc1NC(=O)c1cnn2ccccc12 [Compound 265] | > 3 | 25 to 50 (≈ 69.8 to 140 µM) | > 25 |  |
| CCOC(=O)NC(=O)c1cc(F)sc1NC(=O)c1cn2ccccc2n1 [Compound 338] | < 1 | 25 to 50 (≈ 66.4 to 133 µM) | > 25 |  |
| CCOC(=O)NC(=O)c1ccsc1NC(=O)c1cnc2ccnn2c1 [Compound 81] | < 1 |  | > 25 |  |
| CCOC(=O)NC(=O)c1ccsc1NC(=O)c1nc2c(N3CCN(C)CC3)nccc2s1 [Compound 262] | 1 to 3 (≈ 2.11 to 6.32 µM) | 25 to 50 (≈ 52.7 to 105 µM) | 5 to 25 (≈ 10.5 to 52.7 µM) |  |
| CCOC(=O)NC(=O)c1ccsc1NC(=O)Nc1nc2ccccc2s1 [Compound 312] | > 3 | 25 to 50 (≈ 64 to 128 µM) | > 25 |  |
| O=C(Nc1sccc1C(=O)NC(=O)N1CCOCC1)c1nc2cnccc2s1 [Compound 386] | > 3 | < 25 | > 25 |  |
| CC(C)OC(=O)NC(=O)c1ccsc1NC(=O)c1nc2ccccc2s1 [Compound 41] | < 1 | < 25 | > 25 |  |
| CCOC(=O)NC(=O)c1ccsc1NC(=O)c1noc(C)n1 [Compound 74] | > 3 | 25 to 50 (≈ 77.1 to 154 µM) | > 25 |  |
| CCOC(=O)NC(=O)c1ccsc1NC(=O)c1cnc2c(-c3ccc(OC)cc3)cnn2c1 [Compound 299] | < 1 | < 25 | > 25 |  |
| CC(C)OC(=O)NC(=O)c1ccsc1NC(=O)c1nc2ccccc2o1 [Compound 397] | < 1 | < 25 | > 25 |  |
| O=C(NC(=O)c1ccsc1NC(=O)c1nc2cccnc2s1)OCc1ccccc1C(F)(F)F [Compound 288] | > 3 | < 25 | 5 to 25 (≈ 9.87 to 49.4 µM) |  |
| CN(C)C(=O)NC(=O)c1ccsc1NC(=O)c1cn2ccccc2n1 [Compound 383] | > 3 | < 25 | > 25 |  |
| CC(C)COC(=O)NC(=O)c1ccsc1NC(=O)c1nc2cnccc2s1 [Compound 282] | > 3 | 25 to 50 (≈ 61.8 to 124 µM) | > 25 |  |
| O=C(NC(=O)c1ccsc1NC(=O)c1cnc2ccnn2c1)OCc1ccccc1 [Compound 300] | > 3 | 25 to 50 (≈ 59.3 to 119 µM) | > 25 |  |
| CCOC(=O)NC(=O)c1cc(F)sc1NC(=O)c1nc2cnccc2s1 [Compound 337] | < 1 | 25 to 50 (≈ 63.4 to 127 µM) | > 25 |  |
| O=C(NCC(F)(F)F)NC(=O)c1ccsc1NC(=O)c1nc2ccccc2s1 [Compound 349] | > 3 | 25 to 50 (≈ 58.4 to 117 µM) | > 25 |  |
| CCOC(=O)NC(=O)c1ccsc1NC(=O)c1csc(-c2ccccn2)n1 [Compound 133] | > 3 | > 50 | > 25 |  |
| CCOC(=O)NC(=O)c1c(NC(=O)c2nc3ccccc3s2)sc2c1CCOC2 [Compound 242] |  | > 50 | > 25 |  |
| CCOC(=O)NC(=O)c1ccsc1NC(=O)c1ccc2nccnc2c1 [Compound 398] | < 1 | < 25 | 5 to 25 (≈ 13.5 to 67.5 µM) |  |
| CC1CCN(C(=O)c2ccsc2NC(=O)c2nc3ccccc3s2)CC1 [Compound 260] | > 3 | 25 to 50 (≈ 64.8 to 130 µM) | > 25 |  |
| CCOC(=O)NC(=O)c1ccsc1NC(=O)c1cc(C(F)(F)F)nc2ccccc12 [Compound 117] | > 3 | < 25 | > 25 |  |
| CC(C)OC(=O)NC(=O)c1ccsc1NC(=O)c1cn2ccccc2n1 [Compound 323] | 1 to 3 (≈ 2.69 to 8.06 µM) |  | > 25 |  |
| CCOC(=O)NC(=O)c1ccsc1NC(=O)c1nc2c(s1)CCNC2=O [Compound 55] | > 3 |  | > 25 |  |

| Compound | MIC (Mtb [1]; read-out: MIC (I)) [µg/mL] | CC50 (in vitro) [µg/mL] | MIC (Mtb [2]) [µg/mL] | MIC (Mtb [1]; [3]) [µg/mL] |
| --- | --- | --- | --- | --- |
| CCOC(=O)NC(=O)c1c(C2CC2)csc1NC(=O)c1nc2ccccc2s1 [Compound 245] | > 3 |  | > 25 |  |
| CCOC(=O)NC(=O)c1ccsc1NC(=O)c1nc2c(s1)CCN(C(=O)OC)C2 [Compound 95] | < 1 |  | > 25 |  |
| CC(C)(OC(=O)NC(=O)c1ccsc1NC(=O)c1nc2ccccc2s1)C(F)(F)F [Compound 25] | < 1 | 25 to 50 (≈ 54.7 to 109 µM) |  |  |
| CCOC(=O)NC(=O)c1ccsc1NC(=O)c1ccc2sc(C(C)(C)C)nc2c1 [Compound 415] |  | > 50 |  | > 3 |
| COc1ccc2c(c1)C=C(C(=O)Nc1sccc1C(=O)NC(=O)OC(C)C)CO2 [Compound 404] |  | < 25 |  | < 1 |
| CCOC(=O)NC(=O)c1ccsc1NC(=O)c1nc2cc(CNC(=O)OC(C)(C)C)cnc2s1 [Compound 411] |  | 25 to 50 (≈ 49.4 to 98.9 µM) |  | < 1 |
| CCOC(=O)NC(=O)c1ccsc1NC(=O)c1ccn2nccc2c1 [Compound 251] | < 1 |  | 5 to 25 (≈ 14 to 69.8 µM) |  |
| O=C(NC(=O)c1ccsc1NC(=O)c1nc2ncccc2s1)OCC(F)(F)F [Compound 434] |  | 25 to 50 (≈ 58.1 to 116 µM) |  | > 3 |
| CCOC(=O)NC(=O)c1ccsc1NC(=O)c1cnc2ncccn12 [Compound 80] | 1 to 3 (≈ 2.78 to 8.35 µM) |  | > 25 |  |
| CN(C)C(=O)NC(=O)c1ccsc1NC(=O)c1nc2ccccc2s1 [Compound 45] | > 3 | > 50 |  |  |
| CCOC(=O)NC(=O)c1ccsc1NC(=O)c1ccc2sc(C(C)C)nc2c1 [Compound 413] |  | > 50 |  | < 1 |
| O=C(Nc1sccc1C(=O)Nc1cccnn1)c1nc2cnccc2s1 [Compound 442] |  | 25 to 50 (≈ 65.4 to 131 µM) |  | 1 to 3 (≈ 2.61 to 7.84 µM) |
| O=C(NC(=O)c1ccsc1NC(=O)c1cnc2ccnn2c1)OC1CCC1 [Compound 324] | < 1 |  | > 25 |  |
| CC(C)OC(=O)NC(=O)c1ccsc1NC(=O)c1ccc2ncsc2c1 [Compound 410] |  | < 25 |  | < 1 |
| CC(OC(=O)NC(=O)c1ccsc1NC(=O)c1nc2cnccc2s1)C(F)(F)F (stereo not shown) [Compound 325] | < 1 |  | > 25 |  |
| CCOC(=O)NC(=O)c1ccsc1NC(=O)c1ccc2sc(C3CC3)nc2c1 [Compound 414] |  | > 50 |  | < 1 |
| O=C(Nc1sccc1C(=O)Nc1cnccn1)c1nc2cnccc2s1 [Compound 440] |  | 25 to 50 (≈ 65.4 to 131 µM) |  | > 3 |
| CC(C)OC(=O)NC(=O)c1ccsc1NC(=O)c1cc2cccc(F)c2s1 [Compound 408] |  | < 25 |  | < 1 |
| CC(C)OC(=O)NC(=O)c1ccsc1NC(=O)c1cc(=O)c2ccccc2o1 [Compound 401] |  | < 25 |  | < 1 |
| CC(C)OC(=O)NC(=O)c1ccsc1NC(=O)c1cn2ccc(C#N)cc2n1 [Compound 433] |  | 25 to 50 (≈ 62.9 to 126 µM) |  | 1 to 3 (≈ 2.52 to 7.55 µM) |
| O=C(NC(=O)c1cc(F)sc1NC(=O)c1nc2ccccc2s1)OCC(F)(F)F [Compound 17] | < 1 | < 25 |  |  |
| O=C(Nc1sccc1C(=O)OC1CCCC1)c1nc2ccccc2s1 [Compound 429] |  | > 50 |  | > 3 |
| CC(OC(=O)NC(=O)c1ccsc1NC(=O)c1nc2ccccc2s1)C(F)(F)F (stereo not shown) [Compound 24] | < 1 | < 25 |  |  |

| Compound | MIC (Mtb [1]; read-out: MIC (I)) [µg/mL] | CC50 (in vitro) [µg/mL] | MIC (Mtb [2]) [µg/mL] | MIC (Mtb [1]; [3]) [µg/mL] |
| --- | --- | --- | --- | --- |
| CCOC(=O)NC(=O)c1ccsc1NC(=O)c1nc2c(s1)CCN(S(C)(=O)=O)C2 [Compound 96] | < 1 |  | > 25 |  |
| O=C(Nc1sccc1C(=O)Nc1nccs1)c1nc2cnccc2s1 [Compound 435] |  | 25 to 50 (≈ 64.5 to 129 µM) |  | > 3 |
| CC(C)OC(=O)NC(=O)c1ccsc1NC(=O)c1cn2cc(S(C)(=O)=O)ccc2n1 [Compound 439] |  | 25 to 50 (≈ 55.5 to 111 µM) |  | > 3 |
| O=C(Nc1sccc1C(=O)OC1CCCCC1)c1nc2ccccc2s1 [Compound 430] |  | > 50 |  | > 3 |
| O=C(NC(=O)c1ccsc1NC(=O)c1nc2cnccc2s1)OCC(F)(F)F [Compound 406] |  | < 25 |  | < 1 |
| CCOC(=O)NC(=O)c1ccsc1NC(=O)c1nc2c(s1)CCN(CC)C2 [Compound 79] | 1 to 3 (≈ 2.45 to 7.34 µM) |  | > 25 |  |
| CCOC(=O)NC(=O)c1ccsc1NC(=O)c1nc2nc(C)c(Cl)cc2s1 [Compound 409] |  | 25 to 50 (≈ 58.8 to 118 µM) |  | < 1 |
| CCOC(=O)NC(=O)c1ccsc1NC(=O)c1cc2ncccn2n1 [Compound 250] | < 1 |  | 5 to 25 (≈ 13.9 to 69.6 µM) |  |
| CCOC(=O)NC(=O)c1ccsc1NC(=O)c1ccn2nccc2n1 [Compound 252] | > 3 |  | > 25 |  |
| CC(OC(=O)NC(=O)c1ccsc1NC(=O)c1cnc2ccnn2c1)C(F)(F)F (stereo not shown) [Compound 326] | > 3 |  | > 25 |  |
| CCOC(=O)NC(=O)c1ccsc1NC(=O)c1cnn2cccnc12 [Compound 253] | > 3 |  | > 25 |  |
| CCOC(=O)NC(=O)c1ccsc1NC(=O)c1cn2ccncc2n1 [Compound 78] | > 3 |  | > 25 |  |
| O=C(NC(=O)c1ccsc1NC(=O)c1nc2ccccc2s1)OCCN1CCOCC1 [Compound 38] | < 1 | > 50 |  |  |
| O=C(NC(=O)c1ccsc1NC(=O)c1nc2ccccc2s1)OCC(F)F [Compound 40] | < 1 | < 25 |  |  |
| CCOC(=O)NC(=O)c1c(C)csc1NC(=O)c1nc2ccccc2s1 [Compound 44] | 1 to 3 (≈ 2.57 to 7.7 µM) | > 50 |  |  |
| CCOC(=O)NC(=O)c1ccsc1NC(=O)c1ccc2ocnc2c1 [Compound 26] | < 1 | > 50 |  |  |
| CCOC(=O)NC(=O)c1ccsc1NC(=O)c1cc(=O)c2ccccc2o1 [Compound 400] |  | < 25 |  | < 1 |
| CCOC(=O)NC(=O)c1ccsc1NC(=O)c1cccnn1 [Compound 249] | > 3 |  | > 25 |  |
| CCOC(=O)NC(=O)c1cc(F)sc1NC(=O)c1nc2ccccc2s1 [Compound 16] | < 1 | 25 to 50 (≈ 63.5 to 127 µM) |  |  |
| O=C(NC(=O)c1ccsc1NC(=O)c1nc2ccccc2s1)OC1CCCC1 [Compound 31] | < 1 | > 50 |  |  |
| CCOC(=O)NC(=O)c1ccsc1NC(=O)c1nc2ccc(OC)cc2s1 [Compound 412] |  | > 50 |  | < 1 |
| CCOC(=O)NC(=O)c1ccsc1NC(=O)c1ccc2nonc2c1 [Compound 402] |  | < 25 |  | < 1 |
| CCOC(=O)NC(=O)c1ccsc1NC(=O)c1nc2cc(C#N)cnc2s1 [Compound 54] | < 1 |  | > 25 |  |
